Source: patent US7579152B2, “SENP1 as a marker of cancer development and target for cancer therapy” (Board of Regents, the University of Texas System, priority 2004, dated 2009)

Assays:
PSA = PSA ELISA assay, secreted PSA of LNCaP cells; format: cell-based, human; conditions: for Increase in PSA levels as compared to control: LNCaP, R1881 20 nM, IL-6 25 ng/mL, or both, 24 hr
Method: (§1) LNCaP, PC-3, and DU145 cells were maintained in RPMI 1640 media containing 10% fetal bovine serum and 1% penicillin/streptomycin. The RWPE2 were maintained in Keratinocyte-Serum Free medium supplemented with 5 ng/ml human recombinant EGF and 0.05 mg/ml bovine pituitary extract. For hormone/cytokine treatment, the maintenance media was replaced with phenol red-free RPMI 1640 media containing 10% charcoal-stripped bovine serum and 1% penicillin/streptomycin.
(§2) PC-3 and LNCaP cells were grown in 24-well plates. Cells were transfected with the oligos (40 pmol/well) or siRNA plasmid (200 ng) for one (for PC-3) or three times within 12 hour intervals (for LNcaP) using lipfectamine 2000 (Invitrogen). PSA ELISA or Luciferase assays were used for analysis.
For assessment of PSA, the PSA ELISA assay kit was purchased from MP Biomedicals (Orangeburg, N.Y.) and performed according to manufacturer's instruction. Using a microtiter plate reader, the ng/mL concentration of the cell samples was calculated from the standard curve.

SENP1 [1] = assay: SENP1 mRNA levels by quantitative real-time PCR in LNCaP cells after androgen/cytokine treatment; format: cell-based, human; conditions: for SENP1 expression enhanced (mRNA, QRT-PCR) / Increase in SENP1 levels: R1881 20 nM; for Increase in SENP1 levels: IL-6 25 ng/mL, or both; for SENP1 levels on cytokine treatment: 25 ng/mL, 24 or 48 hr
Method: as §1
(§3) Cells (LNCaP and/or PC-3) were prepared for RNA isolation using the RNA-Bee Reagent (Tel-Test Inc, Friendswood, Tex.) according to manufacture's instructions with stock samples diluted to the appropriate concentrations with the DEPC-treated water.
(§4) The TaqMan Master Mix Reagents (Applied Biosystems, Branchburg, N.J.) were utilized for the quantitative real-time PCR (QRT-PCR) reaction. Primers for either SENP1 ([…]; forward: SEQ. ID. NO. 5: 5′-TTGGCCAGAGTGCAAATGG-3′ and reverse: SEQ. ID. NO. 6 5′-[…]-3′) or the housekeeping 18S rRNA were utilized. SENP1 RNA levels were calculated using the TaqMan ABI PRISM 7900 Sequence Detector System (PE Applied Biosystems).

SENP1 [2] = assay: SENP1 mRNA levels by quantitative real-time PCR in PC-3 cells after androgen/cytokine treatment; format: cell-based; conditions: 24 hr
Method: as §1, §3, §4

cyclin D1 promoter = assay: Cyclin D1 promoter CD1 (-1745/+134) luciferase reporter assay in PC-3 cells; format: cell-based; conditions: TSA for 12 hrs at 24 hr after transfection
Method: At 24 hr after transfection, cells were treated different dosage TSA as indicated for 12 hrs and then luciferase activity were determined. All luciferase activity was normalized to individually determined β-gal activity. […] After 48 hr of transfection, the Luciferase activity was measured. All luciferase activity was normalized to individually determined β-gal activity. […] All luciferase activity was normalized to individually determined β-gal activity.
EGFP-SENP1 and EGFP-SENP1mutant (C603A) were prepared by standard cloning and PCR based mutagenesis. CD1 (−1745/+134), CD1 (−963/+134), CD1 (−66/+134), and, CD1 (−66/+134) mutant-driven luciferase plasmids were prepared by PCR cloning strategy (Albanese et al., 1995; Tetsu et al., 1999). […]
To further confirm the role of SENP1 in cyclin D1 transcription, we performed a cyclin D1 promoter-driven luciferase reporter assay (FIG. 16A) as described by Cheng et al, 2004. CD1 (−1745/+134), which corresponded to the original fragment of cyclin D1 5′ sequence cloned from the PRAD1 breakpoint, was transfected into PC-3 cells and its response to SENP1 was measured.

AR = assay: ARE-luciferase reporter assay of AR-dependent transcription with co-transfected SENP1; format: cell-based; conditions: PC-3 cells, in the presence of bicalutamide
Method: as §2
Luciferase reporter gene assays were used to examine whether SENP1 could affect AR-dependent transcription. […] This effect was dependent on the presence of AR ligand, R1881. […] Even at very low levels of cotransfected DNA, SENP1 induced AR transactivation. […] As the antagonists of androgen can also bind to the AR, the inventors tested whether SENP1 could act on antagonist-bound AR. […] SENP1 and SENP1 mutant were expressed at similar levels (FIG. 9E) and SENP1 and SENP2 were also expressed similarly (FIG. 9F).

Compound: C[C@]1(O)CC[C@H]2[C@@H]3CCC4=CC(=O)CCC4=C3C=C[C@@]21C [R1881]
- Concentration of secreted PSA protein in the cultural medium (PSA; LNCaP cells, R1881): increased
- Increase in PSA levels as compared to control (PSA): 5.6 fold
- SENP1 levels with increasing R1881 concentration (SENP1 [1]; 24 hr): increasing R1881 concentration elevates SENP1 levels
- SENP1 expression enhanced (mRNA, QRT-PCR) (SENP1 [1]; 24 hr): 5 fold
- SENP1 expression enhanced (mRNA, QRT-PCR) (SENP1 [1]; 48 hr): 7 fold
- Increase in SENP1 levels (SENP1 [1]; 24 hr): ~5 fold
- SENP1 expression on R1881 treatment (SENP1 [2]; R1881 30 nM): unaltered

Compound: CC(/C=C/C(=O)NO)=C\[C@@H](C)C(=O)c1ccc(N(C)C)cc1 [TSA]
- SENP1 induction of cyclin D1 promoter activity (cyclin D1 promoter): decreased by TSA in a dose-dependent manner

Compound: CC(O)(CS(=O)(=O)c1ccc(F)cc1)C(=O)Nc1ccc(C#N)c(C(F)(F)F)c1 (centres unmarked) [bicalutamide]
- Effect of SENP1 on AR-dependent transcription with antagonist-bound AR (AR): no effect

Compound: IL-6: cytokine that promotes activation of AR-dependent transcription via MAPK and JAK/STAT pathways
- Increase in PSA levels as compared to control (PSA): 2.2 fold
- SENP1 levels on cytokine treatment (SENP1 [1]): enhanced
- Increase in SENP1 levels (SENP1 [1]; 24 hr): ~5 fold
- SENP1 levels on cytokine treatment (SENP1 [2]; IL-6 25 ng/mL): unchanged

Compound: TNF-α
- SENP1 levels on cytokine treatment (SENP1 [1]): not
